Test results as given in ChEMBL document CHEMBL1201862, “PubChem BioAssay data set” (2004).
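Values below derive from 48-hour exposures of cells grown in 96-well plates, with endpoints linearly interpolated between the two concentrations bracketing the appropriate inhibition level. GI50 = concentration required for 50% inhibition of growth.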 The source made the active and inactive calls. No stated cut-off is given here; in the data, active = GI50 up to about 1.1 µM and inactive = higher.

What was measured:
Assay in all cases: inhibition of tumour cell growth, NCI panel, 48 h
786-0 = test system: 786-0
CAKI-1 = test system: CAKI-1
CCRF-CEM = test system: CCRF-CEM
HCC 2998 = test system: HCC 2998
HCT-15 = test system: HCT-15
KM12 = test system: KM12
M14 = test system: M14
OVCAR-8 = test system: OVCAR-8
RPMI-8226 = test system: RPMI-8226
RXF 393 = test system: RXF 393
SF-539 = test system: SF-539
SK-MEL-2 = test system: SK-MEL-2
SK-MEL-5 = test system: SK-MEL-5
SN12C = test system: SN12C
TK-10 = test system: TK-10
U-251 = test system: U-251
UACC-62 = test system: UACC-62
UO-31 = test system: UO-31
SR = test system: SR

SMILES | GI50 (786-0) | GI50 (CAKI-1) | GI50 (CCRF-CEM) | GI50 (HCC 2998) | GI50 (HCT-15) [µM] | GI50 (KM12) | GI50 (M14) | GI50 (OVCAR-8) | GI50 (RPMI-8226) | GI50 (RXF 393) | GI50 (SF-539) | GI50 (SK-MEL-2) | GI50 (SK-MEL-5) | GI50 (SN12C) | GI50 (TK-10) | GI50 (U-251) | GI50 (UACC-62) | GI50 (UO-31) | GI50 (SR)
O=c1nc(NC(c2ccccc2)(c2ccccc2)c2ccccc2)ccn1CCNCCn1ccc(NC(c2ccccc2)(c2ccccc2)c2ccccc2)nc1=O | 14.1 µM (inactive) | 14.8 µM (inactive) | 5.96 µM (inactive) | 3.96 µM (inactive) | > 100 | 3.44 µM (inactive) | 18.3 µM (inactive) | 10.7 µM (inactive) | 2.55 µM (inactive) | 11.8 µM (inactive) | 11.3 µM (inactive) | 2.66 µM (inactive) | 5.48 µM (inactive) | 12.4 µM (inactive) | 26.9 µM (inactive) | 4.33 µM (inactive) | 4.42 µM (inactive) | > 100 µM (inactive) | –
CC1CC2C(=O)N(c3ccccc3)C(=O)C2c2c1c1ccccc1n2Cc1ccccc1 (stereo unspecified) | > 100 µM (inactive) | > 100 µM (inactive) | > 100 µM (inactive) | – | 35.1 | 7.52 µM (inactive) | > 100 µM (inactive) | > 100 µM (inactive) | > 100 µM (inactive) | – | > 100 µM (inactive) | > 100 µM (inactive) | > 100 µM (inactive) | > 100 µM (inactive) | – | – | > 100 µM (inactive) | > 100 µM (inactive) | 27.2 µM (inactive)
CCOc1ccc2c(c1)[n+]([O-])c(-c1ccc(Cl)cc1)c(N)[n+]2[O-] | > 100 µM (inactive) | > 100 µM (inactive) | – | – | > 100 | > 100 µM (inactive) | > 100 µM (inactive) | > 100 µM (inactive) | 10.8 µM (inactive) | – | > 100 µM (inactive) | > 100 µM (inactive) | > 100 µM (inactive) | > 100 µM (inactive) | – | > 100 µM (inactive) | – | 67.1 µM (inactive) | > 100 µM (inactive)
N#C/C(c1nc2ccccc2[nH]1)=c1\s/c(=C/c2ccc(Cl)cc2)c(=O)n1-c1ccccc1 | > 100 µM (inactive) | > 100 µM (inactive) | > 100 µM (inactive) | > 100 µM (inactive) | > 100 | > 100 µM (inactive) | > 100 µM (inactive) | > 100 µM (inactive) | > 100 µM (inactive) | – | > 100 µM (inactive) | > 100 µM (inactive) | > 100 µM (inactive) | > 100 µM (inactive) | > 100 µM (inactive) | > 100 µM (inactive) | > 100 µM (inactive) | > 100 µM (inactive) | > 100 µM (inactive)
Nc1ccc(C(=O)N/C(=C\c2ccc3c(c2)OCO3)c2nc3ccccc3s2)cc1 | 11.6 µM (inactive) | 15.9 µM (inactive) | 1.89 µM (inactive) | 14.8 µM (inactive) | 11.3 | 14.8 µM (inactive) | 11 µM (inactive) | 14.2 µM (inactive) | – | 14.8 µM (inactive) | 17.6 µM (inactive) | 14.8 µM (inactive) | 13.7 µM (inactive) | 13 µM (inactive) | 19.8 µM (inactive) | 13.1 µM (inactive) | 14.4 µM (inactive) | 15.6 µM (inactive) | 6.01 µM (inactive)
O=c1[nH]cc(COCCCO)c(=O)[nH]1 | > 100 µM (inactive) | > 100 µM (inactive) | > 100 µM (inactive) | – | > 100 | > 100 µM (inactive) | > 100 µM (inactive) | > 100 µM (inactive) | > 100 µM (inactive) | > 100 µM (inactive) | > 100 µM (inactive) | > 100 µM (inactive) | > 100 µM (inactive) | > 100 µM (inactive) | > 100 µM (inactive) | > 100 µM (inactive) | > 100 µM (inactive) | > 100 µM (inactive) | > 100 µM (inactive)
CCOC(=O)/C(Br)=C1\OC(=O)c2ccccc2-c2ccccc21 | 52.8 µM (inactive) | 54.3 µM (inactive) | 23.3 µM (inactive) | 49.2 µM (inactive) | 48.4 | 34.7 µM (inactive) | 40.4 µM (inactive) | 49.8 µM (inactive) | 27.9 µM (inactive) | – | 25.1 µM (inactive) | 64 µM (inactive) | 37.1 µM (inactive) | 37.4 µM (inactive) | 60.7 µM (inactive) | 38.5 µM (inactive) | 44.4 µM (inactive) | 38.7 µM (inactive) | 22 µM (inactive)
O=[N+]([O-])c1ccc(N2C[N+](c3ccccc3)=NC(c3ccccc3)=N2)cc1 | 59.7 µM (inactive) | 63 µM (inactive) | 45.1 µM (inactive) | – | 28.6 | 29.4 µM (inactive) | 58.1 µM (inactive) | 43.9 µM (inactive) | 39.3 µM (inactive) | 54.5 µM (inactive) | 72.3 µM (inactive) | 20.5 µM (inactive) | 29 µM (inactive) | 46.3 µM (inactive) | 40.7 µM (inactive) | 32.2 µM (inactive) | 26.2 µM (inactive) | 17.3 µM (inactive) | 37.8 µM (inactive)
CCO/C([O-])=C(\C(=O)c1ccc([N+](=O)[O-])cc1)[n+]1c(C)n(C)c2ccccc21 | > 100 µM (inactive) | > 100 µM (inactive) | > 100 µM (inactive) | > 100 µM (inactive) | – | > 100 µM (inactive) | > 100 µM (inactive) | > 100 µM (inactive) | > 100 µM (inactive) | > 100 µM (inactive) | > 100 µM (inactive) | > 100 µM (inactive) | > 100 µM (inactive) | – | > 100 µM (inactive) | > 100 µM (inactive) | > 100 µM (inactive) | > 100 µM (inactive) | –
O=C(NCCNCCO)c1cccc2ccc(-c3ccccc3)nc12 | 6.87 µM (inactive) | 3.38 µM (inactive) | 3.4 µM (inactive) | 5.01 µM (inactive) | 3.8 | 5.68 µM (inactive) | 5.28 µM (inactive) | 4.42 µM (inactive) | – | 3.98 µM (inactive) | 3.63 µM (inactive) | 7.74 µM (inactive) | 3.59 µM (inactive) | 3.97 µM (inactive) | 1.44 µM (inactive) | 4.82 µM (inactive) | 4.54 µM (inactive) | 3.44 µM (inactive) | –
OC1OCC(COc2cc(Cl)c(Cl)cc2Cl)OC1O (stereo unspecified) | 77.1 µM (inactive) | 33.1 µM (inactive) | 32 µM (inactive) | 30.4 µM (inactive) | 19.8 | 35.6 µM (inactive) | 30.1 µM (inactive) | 36.8 µM (inactive) | 26.7 µM (inactive) | – | 39.4 µM (inactive) | – | 39.5 µM (inactive) | 38.2 µM (inactive) | > 100 µM (inactive) | 36.6 µM (inactive) | 33 µM (inactive) | 41.9 µM (inactive) | –
NNC(=O)CCC(=O)NC1C2CC3CC(C2)CC1C3 (stereo unspecified) | > 100 µM (inactive) | > 100 µM (inactive) | > 100 µM (inactive) | > 100 µM (inactive) | > 100 | > 100 µM (inactive) | > 100 µM (inactive) | > 100 µM (inactive) | > 100 µM (inactive) | 45.4 µM (inactive) | > 100 µM (inactive) | > 100 µM (inactive) | > 100 µM (inactive) | > 100 µM (inactive) | > 100 µM (inactive) | > 100 µM (inactive) | > 100 µM (inactive) | > 100 µM (inactive) | –
COc1ccc(OCC(=O)O)c2c1CCC(C(C)C)C2=O (stereo unspecified) | > 100 µM (inactive) | > 100 µM (inactive) | > 100 µM (inactive) | > 100 µM (inactive) | – | > 100 µM (inactive) | > 100 µM (inactive) | > 100 µM (inactive) | > 100 µM (inactive) | – | > 100 µM (inactive) | > 100 µM (inactive) | > 100 µM (inactive) | – | > 100 µM (inactive) | > 100 µM (inactive) | > 100 µM (inactive) | > 100 µM (inactive) | –
CC(=O)OCC1OC(OC2CC3C(C)(C)C(OC(C)=O)CC[C@]3(C)C3CCC45CC4(CC[C@H]5C(C)CC(O)[C@@H](O)C(C)(C)O)[C@]23C)C(O)C(O)C1O (stereo partly specified) | 7.82 µM (inactive) | 7.21 µM (inactive) | 6.46 µM (inactive) | 6.84 µM (inactive) | 7.64 | 7.85 µM (inactive) | 6.95 µM (inactive) | 7.45 µM (inactive) | 0.173 µM (active) | 7.57 µM (inactive) | 7.31 µM (inactive) | 9.38 µM (inactive) | 7.13 µM (inactive) | 7.05 µM (inactive) | 7.76 µM (inactive) | 6.28 µM (inactive) | 6.25 µM (inactive) | 6.38 µM (inactive) | –
CC1CC[C@]2(C(=O)O)CCC3(C)C(=CCC4[C@@]5(C)CC[C@H](OS(=O)(=O)c6ccccc6)C(C)(C)C5CC[C@]43C)[C@@H]2[C@H]1C (stereo partly specified) | > 100 µM (inactive) | > 100 µM (inactive) | 78 µM (inactive) | 63.8 µM (inactive) | – | > 100 µM (inactive) | > 100 µM (inactive) | > 100 µM (inactive) | 35 µM (inactive) | – | > 100 µM (inactive) | 48.9 µM (inactive) | > 100 µM (inactive) | > 100 µM (inactive) | > 100 µM (inactive) | 83.2 µM (inactive) | > 100 µM (inactive) | 88.9 µM (inactive) | 36.8 µM (inactive)
Cc1nc2ccccc2c(=O)[nH]1 | > 100 µM (inactive) | – | > 100 µM (inactive) | > 100 µM (inactive) | > 100 | > 100 µM (inactive) | > 100 µM (inactive) | > 100 µM (inactive) | > 100 µM (inactive) | > 100 µM (inactive) | > 100 µM (inactive) | > 100 µM (inactive) | > 100 µM (inactive) | > 100 µM (inactive) | > 100 µM (inactive) | > 100 µM (inactive) | > 100 µM (inactive) | > 100 µM (inactive) | –
